Values quoted from earlier work, collected in patent US6465497B2, “Arylthiazolidinedione derivatives” (Merck & Co., Inc., priority 1999, dated 2002).

Columns and labels:
[1] = system: ob/ob mice; settings: Cantello et al, J. Med. Chem. 1994
[2] = molecular target: T1, PPARγ (Homo sapiens, UniProt P37231); settings: subsequent studies; Willson et al, J. Med. Chem. 1996
T1 sequence (P37231 1-505): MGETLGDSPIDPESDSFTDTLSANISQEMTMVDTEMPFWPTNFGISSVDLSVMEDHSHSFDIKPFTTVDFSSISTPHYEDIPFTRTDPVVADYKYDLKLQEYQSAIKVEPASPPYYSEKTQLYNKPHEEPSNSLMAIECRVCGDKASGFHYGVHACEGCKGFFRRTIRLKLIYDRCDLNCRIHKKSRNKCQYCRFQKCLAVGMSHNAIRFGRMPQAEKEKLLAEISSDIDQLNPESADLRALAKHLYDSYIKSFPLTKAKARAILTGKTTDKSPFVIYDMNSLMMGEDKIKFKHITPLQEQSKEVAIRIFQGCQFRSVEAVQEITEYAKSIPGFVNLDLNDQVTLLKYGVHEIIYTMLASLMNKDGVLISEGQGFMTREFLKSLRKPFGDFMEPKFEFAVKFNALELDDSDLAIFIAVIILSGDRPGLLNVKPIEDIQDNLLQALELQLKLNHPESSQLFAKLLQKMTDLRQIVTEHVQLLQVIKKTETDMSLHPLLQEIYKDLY

[3] = system: diabetic mouse model; settings: Sohda et al, Chem. Pharm. Bull. 1982

amounts required for PPARγ activation [2] | SMILES | antihyperglycemic activity [1] | antihyperglycemic effect [3]
relatively high amounts | CN(CCOc1ccc(C2SC(=O)NC2=O)cc1)c1nc2ccccc2o1 (stereo not drawn) [(1), 5-[4-[2-(2-benzoxazolylmethylamino)ethoxy]phenyl]-2,4-thiazolidinedione] | no antihyperglycemic activity | –
– | O=C1NC(=O)C(c2ccc(OCCc3ccccc3)cc2)S1 (stereo not drawn) [(2), 5-[4-(phenylethoxy)phenyl]-2,4-thiazolidinedione] | – | no antihyperglycemic effect
